Here are results for three compounds from ChEMBL document CHEMBL5120968, “Syzysamalactone, an Unusual 11-Carbon δ-Lactone Derivative from the Fresh Ripe Fruits of Syzygium samarangense (Wax Apple)” (J Nat Prod, 2022).

SMILES strings stand for the structures.

This test has as its system SH-SY5Y. The test can be described thus: Neuroprotective activity against 6-OHDA induced cell death in human SH-SY5Y cells preincubated with 6-hyrdoxydopamine followed by compound addition and measured after 24 hrs by MTT assay. Type of test: functional, cell-based. In general terms: Tetrazolium dyes change colour on reduction, which living cells bring about.

For orientation: EC50 means the concentration at which the effect is half-maximal. Read a high EC50 as a need for much substance. Compound `CCCCCc1cccc(=O)o1` had an EC50 of 1280 nM.

`CC[C@H]1CCc2oc(=O)ccc2[C@H]1O` displayed an EC50 of 290 nM.

In the case of `COc1cc(/C=C/C(=O)CC(=O)/C=C/c2ccc(O)c(OC)c2)ccc1O` [CURCUMIN], the midpoint of the response, the EC50, lay at 5290 nM.
